Assays:
[1] = tested on: B16-F10 cells; assay: MTS cell proliferation assay; assay type: cell-based, mouse; conditions: FIG. 1, in vitro
Experimental: MTS: Same numbers of PRAK WT and KO cells were plated on 96-well plates. Cell Titer 96 Aqueous cell proliferation detection solution was added at different time points after the cells adhered to the walls. After incubation at 37° C. for 1 to 4 hours, the absorbance was measured at 490 nm and the cell proliferation curve was drawn.

[2] = tested on: B16-F10 cells; assay: AnnexinV/7-AAD staining, apoptosis by flow cytometry; assay type: cell-based, mouse; conditions: FIG. 2; 0.1 μM and 1 μM, 24 hours
Experimental: AnnexinV/7-AAD staining: Cells were plated on 24-well plates. 0.1 μM and 1 μM of PRAK inhibitor-23 were added for treatment after the cells adhered to the walls. After 24 hours, the cells were harvested for Annexin V/7-AAD staining, and the cell apoptosis was analyzed by flow cytometry.

[3] = tested on: B16-F10 tumors; assay: Growth of subcutaneously inoculated B16-F10 tumors in C57BL/6 mice; assay type: in vivo, mouse; conditions: FIG. 5, 2 mg/kg/d intraperitoneal
Experimental: 3. Effects on tumor growth in situ Experimental procedure: The C57BL/6 female mice of 6 to 8 week old (commercially available, for example, from Charles River) were selected for the experiment. The B16-F10 cells in the logarithmic growth phase were digested, and washed twice with PBS. After counting, the cells were resuspended in PBS at a density of 1.5×10^6/ml. The tumor cells (3×10^5 cells in 200 μL) were subcutaneously inoculated into the lateral ribs of mice. The drug-treated group was intraperitoneally injected with PRAK inhibitor-23 at 2 mg/kg/d.
The long diameter (L) and short diameter (S) of the tumor were measured with vernier calipers every two days, the tumor size was calculated with the formula L×S×S×0.5, and the tumor growth curve was drawn.

[4] = tested on: spontaneous breast tumors; assay: Incidence and growth of spontaneous breast tumors in MMTV-PyMT mice; assay type: in vivo, mouse; conditions: FIG. 12, 1 mg/kg every other day from 12th week, week 15
Experimental: The MMTV-PyMT mice were crossed with PRAK mice to obtain MMTV-PRAK WT and MMTV-PRAK knockout mice. From 8 to 10 weeks, the occurrence of breast tumors was observed. Another group of MMTV-PRAK WT mice were given PRAK inhibitor (1 mg/kg) every other day from the 12th week. At week 15, the mice were sacrificed, breast tumor nodules were counted and weighed, and lung tumor nodules were counted at the same time.

O=C1NCc2cc(-c3cnc(Nc4ccc(N5CCOCC5)cc4)c4nccn34)ccc21 [PRAK inhibitor-23, 5-(8-((4-morpholinylphenyl)amino)imidazo [1,2-a]pyrazin-5-yl) isoindol-1-one]
no significant effect: effect on the proliferation of B16-F10 cells [1] | effect on the apoptosis of B16-F10 cells [2] | effect on the growth of subcutaneously inoculated B16-F10 tumors at the injection site [3] | effect on the incidence and growth of spontaneous breast tumors [4]

Source: patent US20210132041A1, “TARGET FOR DRUG TREATMENT OF TUMOR METASTASIS AND USE THEREOF” (PEKING UNIVERSITY, priority 2018, published 2021)
